From patent US20030186370A1, “5ht3 receptors of nematodes, polynucleotide molecules encoding same, and antagonists thereof” (priority 2000, published 2003)
pEC50, pIC50: −log10 of the molar value. Where two headings read alike, the source gives them in different places.

Columns and labels:
[1] = tested on: C. elegans; assay: Effects of 5-HT receptor class-selective agonists and antagonists on C. elegans pharyngeal pumping and locomotion on agar; type: in vivo
Description: For the experiments described below C. elegans of the Bristol N2 strain (Brenner, S. 1974. The genetics of Caenorhabditis elegans, Genetics, 77: 71-94) were cultured at room temperature on HMS174 E. coli bacteria (Campbell J. L. et al. 1978. Genetic recombination and complementation between bacteriophage T7 and cloned fragments of T77 DNA. Proc. Natl. Acad. Sci. USA. 75: 2276-2280) on NGM agar (Sulston, J. and Hodgkin, J. 1988, “Methods” in The nematode Caenorhabditis elegans. W. B. Wood pp 587-606. Cold Spring Harbor Laboratory Press, New York) unless otherwise described.
Studies were therefore conducted wherein selective 5-HT1, 5-HT2 and 5-HT3 agonists were applied at known concentrations to agar on which C. elegans was held in the absence of food and the effects on movement and pharyngeal pumping monitored over a period of 2-3 hours.
Studies were also conducted to investigate the ability of selective vertebrate 5-HT3 antagonists to inhibit the 5-HT-induced increase in pharyngeal pumping.

[2] = tested on: C. elegans; assay: Dose-response of serotonin-stimulated pharyngeal pumping of C. elegans; type: in vivo; conditions: for pIC50: in the presence of 0.325 mM serotonin (FIG. 2), read-out: IC50, inhibition of serotonin-stimulated pharyngeal pumping
Description: FIG. 1 provides dose-response curves for serotonin action on pharyngeal pumping. […] Any minor differences between the curves of FIGS. 1a and 1b are accounted for by the differences in experimental detail and the fact that in the microscopical assay, the rate of pumping is counted over a period of 1-3 minutes, whilst in the plate-based assays the fluorescence intensity represents the accumulation of ingested material over 60 minutes.
At this concentration of 5-HT, the IC50 for MDL72222 is approximately 30 μM, i.e. 10×lower than the EC50 for 5-HT.

[3] = tested on: Helicoverpa armigera; assay: Growth of neonate H. armigera on surface-contaminated artificial diet; type: in vivo; conditions: for Mean weight of larva (mg) at 7 days: 24 larvae; for activity at 100 µM / activity at 1000 µM: Helicoverpa armigera, 168 h, read-out: % of control weight
[4] = tested on: C. elegans; assay: Chronic exposure protocol: nematode growth and survival on NGM agar containing the compound; type: in vivo; conditions: for mortality at 5 µM / mortality at 10 µM / mortality at 20 µM / mortality at 40 µM / mortality at 81 µM / mortality at 162 µM / mortality at 325 µM: Caenorhabditis elegans
Description: Because the pharyngeal pump is essential for nematode feeding and the maintenance of the nematode “hydrostatic skeleton” [Brownlee, D. J. A. et al. 1997, supra] and a previously established target organ for nematicides, an investigation was conducted to assess whether the 5-HT3-selective antagonists would function as nematicidal agents in a chronic exposure protocol.
C. elegans nematodes were cultured on the HMS/174 strain of E. coli [Campbell, J. L. et al. 1978. Genetic recombination and complementation between bacteriophage T7 and cloned fragments of T7 DNA. Proc. Natl. Acad. Sci. USA. 75: 2276-2280] on NGM agar [Sulston, J. and Hodgkin, J. 1988, supra] in the wells of six well tissue culture cluster, 2 ml agar per well. MDL72222 was incorporated into the agar at the specified concentrations using ≦65 μl of acetone as a carrier. A control well contained 65 μl of acetone only. Between five and 11 L1 stage C. elegans were transferred to each well and the wells were incubated at 22° C. for up to four weeks. All concentrations >10 μM MDL 72222 caused developmental delays. Concentrations of MDL 72222 down to 80 μM caused 40 % mortality within three days. […] The bacterial food therefore remained uneaten for prolonged periods.
Concentrations of MDL72222 down to 20 μM caused 90-100% mortality within 21 days and concentrations as low as 10 μM and 5 μM caused 50-100% mortality at 21 days. At the lowest concentrations of MDL72222, nematode death was delayed until after the bacterial food had been consumed. […] The experiment shown in Table 3 was repeated with essentially identical results.

[5] = tested on: Myzus persicae; assay: Green Peach Aphid artificial diet sachet bioassay, growth and survival; type: in vivo; conditions: for Mean number of surviving aphids (out of 5) / Mean relative growth rate of survivors: after 5 days
Description: The effects of MDL 72222 on Green Peach Aphid (Myzus persicae) was also tested. The bioassay involved testing compounds at 3 different concentrations (1 mM, 100 μM, 10 μM) in an artificial diet. Compounds that were not water-soluble were forced into solution using a non-toxic surfactant. For each compound, each concentration was tested in 10 replicate assays. In each replicate, 5 aphids were allowed to feed on the test solution in a Parafilm® sachet for a period of 5 days. Survivorship and aphid growth rate were compared among the test concentrations and a control containing only the artificial diet with surfactant.

[6] = tested on: snail 5-HT3-like ion channel; conditions: Green et al. 1996; read-out: IC50 on the snail 5-HT3-like ion channel / 5-HT gated conductance; cited from earlier work
[7] = 0.1 mM by surface contamination of diet
[8] = 1.0 mM by surface contamination of diet
[9] = Table 3 experiment, 0.325 mM antagonist plus 0.325 mM serotonin
[10] = Table 3 experiment, 0.325 mM, nothing else added
[11] = 72 h, read-out: % Mortality - 3 days
[12] = 504 h, read-out: % Mortality - 21 days
[13] = Table 2 experiment, 0.325 mM (each), nothing else added

Cc1[nH]c2ccc(O)cc2c1CCN.Cl [2-methyl-5-hydroxytryptamine hydrochloride]
Effect on locomotion ([1]; agonist 3 mM): Locomotion normal, | Pumping rate (min-1) mean ± s.d. ([1]; agonist 3 mM in agar, absence of food, 2-3 hours): 130 ± 27 min⁻¹

CN1[C@@H]2CC[C@H]1C[C@@H](OC(=O)c1cc(Cl)cc(Cl)c1)C2 [MDL 72222]
pIC50 ([2]; Caenorhabditis elegans): ~4.60 | pIC50 [2]: ~4.52 | Mean weight of larva (mg) at 7 days [3, 7]: 51 mg | Mean weight of larva (mg) at 7 days [3, 8]: 54 mg | activity at 100 µM ([3]; 0.1 mM by surface contamination of diet, 7 days): 70% | activity at 1000 µM ([3]; 1.0 mM by surface contamination of diet, 7 days): 75% | Pumping rate (min-1) mean ± s.d. [1, 9]: 2 ± 2 min⁻¹ | Pumping rate (min-1) mean ± s.d. [1, 10]: 1 ± 1 min⁻¹ | Time to consumption of all bacteria ([4]; 5 μM in agar): 7 days | Time to consumption of all bacteria ([4]; 10 μM in agar): 8 days | Time to consumption of all bacteria ([4]; 20 μM in agar): 9 days | Time to consumption of all bacteria ([4]; 40 μM in agar): 10 days | Time to consumption of all bacteria ([4]; 81 μM in agar): 16 days | Time to consumption of all bacteria ([4]; 162 μM in agar): >28 days | Time to consumption of all bacteria ([4]; 325 μM in agar): >28 days | mortality at 5 µM [4, 11]: 0% | mortality at 10 µM [4, 11]: 0% | mortality at 20 µM [4, 11]: 0% | mortality at 40 µM [4, 11]: 0% | mortality at 81 µM [4, 11]: 42% | mortality at 162 µM [4, 11]: 64% | mortality at 325 µM [4, 11]: 55% | mortality at 5 µM [4, 12]: 100% | mortality at 10 µM [4, 12]: > 50% | mortality at 20 µM [4, 12]: 100% | mortality at 40 µM [4, 12]: > 90% | mortality at 81 µM [4, 12]: > 90% | mortality at 162 µM [4, 12]: > 90% | mortality at 325 µM [4, 12]: 100% | Concentrations that caused developmental delays ([4]; L1 stage seeded, 22° C.): > 10 µM | Mean number of surviving aphids (out of 5) ([5]; 0.01 mM in artificial diet): 4.6 | Mean relative growth rate of survivors ([5]; 0.01 mM in artificial diet): 0.0339 | Mean number of surviving aphids (out of 5) ([5]; 0.1 mM in artificial diet): 3.4 | Mean relative growth rate of survivors ([5]; 0.1 mM in artificial diet): 0.0200 | Mean number of surviving aphids (out of 5) ([5]; 1 mM in artificial diet): 0.9 | Mean relative growth rate of survivors ([5]; 1 mM in artificial diet): 0.0383

Cl.Clc1cccc(N2CCNCC2)c1 [m-CPP hydrochloride]
Effect on locomotion ([1]; agonist 1 mM (each, if combined)): Locomotion inhibited | Pumping rate (min-1) mean ± s.d. ([1]; agonist 1 mM (each, if combined) in agar, absence of food, 2-3 hours): 0 min⁻¹ | Effect on locomotion ([1]; agonist 6 mM (each, if combined)): Locomotion inhibited | Pumping rate (min-1) mean ± s.d. ([1]; agonist 6 mM (each, if combined) in agar, absence of food, 2-3 hours): 0 min⁻¹

Cc1nccn1CC1CCc2c(c3ccccc3n2C)C1=O (stereo not shown) [ondansetron]
Effect on growth and development of neonate H. armigera ([3]; artificial diet, surface contamination): no discernible effect | Effect on locomotion [1, 9]: Nematodes moved normally | Pumping rate (min-1) mean ± s.d. [1, 9]: 32 ± 29 min⁻¹ | Effect on locomotion [1, 10]: Nematodes moved normally | Pumping rate (min-1) mean ± s.d. [1, 10]: 0 ± 0 min⁻¹ | Effect on M. persicae ([5]; 1 mM, 100 μM, 10 μM in artificial diet, 5 days): no discernible effect | pIC50 [6]: 5.00

NCCc1c[nH]c2ccc(O)cc12 [serotonin, 5-Hydroxytryptamine]
pEC50 ([2]; Caenorhabditis elegans, read-out: EC50 of 5-HT on pharyngeal pumping): ~3.49 | Mean weight of larva (mg) at 7 days [3, 7]: 85 mg | Mean weight of larva (mg) at 7 days [3, 8]: 85 mg | activity at 100 µM [3]: 116% | activity at 1000 µM [3]: 116% | Effect on locomotion [1, 13]: Nematodes moved normally | Pumping rate (min-1) mean ± s.d. [1, 13]: 129 ± 6 min⁻¹ | Effect on locomotion [1, 10]: Nematodes moved normally | Pumping rate (min-1) mean ± s.d. [1, 10]: 54 ± 45 min⁻¹
